Results on one molecule are retold here after patent US9981043B2, “Analgesic conjugates” (priority 2013, dated 2018).

Series [1] deals with live mice. Nature of the series: Respiratory depression (Mouse Ox O2 saturation). Type of series: in vivo. Particulars: for % of mice with O2 Saturation less than 90%: i.t., LPS. As for the experimental part: Respiratory depression was measured in live mice using the Mouse Ox (small animal Oximeter from STARR Life Sciences Corp, Oakmont, Pa.). CollarClip™—(Un-Anesthetized Neck Sensor) for mice was used as the site for measuring the data. Day one of each experiment involved training the animals using a disposable CollarClip™. The collar was left on for approximately one hour. […] Mice were monitored for a 60-minute period, with measurements 10-20-30 and 60 minutes.
Respiratory depression was measured in live mice using the Mouse Ox (small animal Oximeter from STARR Life Sciences Corp, Oakmont, Pa.). CollarClip™ (Un-Anesthetized Neck Sensor) for mice was used as the site for measuring the data.
Day one of each experiment involved training the animals using a disposable CollarClip™. The collar was left on for approximately one hour.
Mice were monitored for a 60-minute period, with measurements 10-20-30 and 60 minutes.

Series [2] has as its system mice. Nature of the series: Rota-Rod motor performance, CFA injected mice. Particulars: i.t., after the 48 hour measurement post CFA. Type of series: in vivo. As for the experimental part: To first evaluate the effects of CFA injection on motor coordination, a group of 10 animals were tested on the Rotamex (Columbus Instruments Rotamex 4/8 instrument) for performance. Animals were trained three days prior to undergoing 3-5 minute trials on an accelerating rotating rod (0-20 RPMs). Motor performance was evaluated at 2, 4, 6, 24 and 48 hours post injection. Compound 4c was then injected i.t. and the motor performance was evaluated at 5 and 20 minutes. The time to the first fall were recorded and compared with controls (Kovacs K J, et al., Pain, 2008, 136, 75-84). The results for compound 4c are illustrated in FIG. 10.

For the molecule `Cc1cccc(C#Cc2cccc(OCCNC(=O)COCC(=O)NCCCCCNC(=O)COCC(=O)N[C@H]3CC[C@@]4(O)C5Cc6ccc(O)c7c6[C@@]4(CCN5C)[C@H]3O7)c2)n1` [Compound 4c, N-((4aS,7S,7aR,12bS)-4a,9-dihydroxy-3-methyl-2,3,4,4a,5,6,7,7a-octahydro-1H-4,12-methanobenzofuro[3,2-e]isoquinolin-7-yl)-2-((1-(3-((6-methylpyridin-2-yl)ethynyl)phenoxy)-4,8,16-trioxo-6-oxa-3,9,15-triazaheptadecan-17-yl)oxy)acetamide], the safety margin entry in series [1] (compared with morphine) is “greater safety margin than morphine”. Besides, in series [1] (estimated), the therapeutic index entry is “greater than a million”. The “% of mice with O2 Saturation less than 90%” value in series [1] (dose 50,000 times the ED90) stood at 0%; in series [1] (dose 100,000 times the ED90) it was 100%. In addition, the respiratory depression result in series [1] (mouse, in vivo) is recorded as “no tolerance or respiratory depression”. In addition, in series [2], the “time on the Rotamex (time to first fall)” value is reported as “stayed on the Rotomex for a longer period of time”.
